Assay results reported in patent US11344496B2, “Methods for preparing stabilized amorphous drug formulations using acoustic fusion” (Merck Sharp & Dohme Corp., priority 2017, dated 2022).

Experiments:
[1] = BCS (Biopharmaceutics Classification System) designation by solubility and permeability; type: physicochemical; set-up: key: BCS Class 1 describes compounds with high permeability and high solubility.; BCS Class 2 describes compounds with high permeability and low solubility.; BCS Class 3 describes compounds with low permeability and high solubility.; BCS Class 4 describes compounds with low permeability and low solubility
From the text: We tested a number of model drugs using the acoustic fusion methods, as described infra. The drugs tested are representative BCS Class 2 and Class 4 drugs. The BCS (Biopharmaceutics Classification System) designation is used to group compounds into classes based on their solubility and permeability (BCS guidance “Waiver of In vivo Bioavailability and Bioequivalence Studies for Immediate Release Solid Oral Dosage Forms Based on a Biopharmaceutics Classification System,” U.S. Department of Health and Human Services, Food and Drug Administration):
BCS Class 1 describes compounds with high permeability and high solubility.
BCS Class 2 describes compounds with high permeability and low solubility.
BCS Class 3 describes compounds with low permeability and high solubility.
BCS Class 4 describes compounds with low permeability and low solubility.
Under the BCS Classification System, a drug is considered highly soluble if fully solubilized in 250 mL water at the highest therapeutic dose at any physiological pH. A drug is considered highly permeable if the extent of oral absorption is greater than 90%.

[2] = Rat oral pharmacokinetic study of torcetrapib formulations; type: in vivo; settings: male, Wistar-Han, plasma, rats, 10 mg/kg
Description: The in vivo absorption of Torcetrapib after oral administration of the Torcetrapib-copovidone-TPGS dispersion described in Example 4 was investigated in rats at a dose level of 10 mg/kg. Materials and methods used for the rat pharmacokinetic study are provided below. Crystalline drug powders and drug-polymer dispersion formulations were also evaluated as control formulations. The drug powders and drug-polymer dispersions were dosed as suspensions in 0.5% of methylene cellulose. The Torcetrapib-polymer dispersion was used as a benchmark formulation for enhancing the drug's solubility and oral absorption.
Male Wistar-Han rats were used for oral administration studies. All animals were fasted overnight before dosing, provided water ad libitum, and fed 4 hours following drug treatment. The fasted animals were orally given torcetrapib formulations by gavage (n=3) at a torcetrapib dose of 10 mg/kg. The formulations included a suspension of crystalline torcetrapib powder in 0.5% of methyl cellulose (MC), a suspension of torcetrapib-polymer dispersion in 0.5% of acidified MC (5 mM HCl added to prevent dissolution of the polymer in the vehicle). Serial blood samples were collected at 0.25, 0.5, 1, 2, 4, 8, 12, 18, and 24 hour post-dose and placed into EDTA-containing tubes and centrifuged. […]
Torcetrapib plasma concentrations were determined by LC-MS/MS following protein precipitation with acetonitrile. […] Analyte response was measured by multiple reaction monitoring (MRM) of transitions unique to each compound.
Calibration curves were generated and verified using standard and quality control samples prepared from an initial weighing of high purity compound. […] The limit of quantification was 1 ng/mL. […]
Pharmacokinetic parameters were calculated by established non-compartmental methods. The area under the plasma concentration vs. time curve from time zero to time t(AUC0-t) was determined using the Watson software (version 7.3) with linear trapezoidal interpolation in the ascending slope and logarithmic trapezoidal interpolation in the descending slope.

BCS Class [1] | Tmax ([2]; mean n = 3) | AUC(0-t) ([2]; mean n = 3, read-out: AUC(0-24)) | Cmax ([2]; suspension in 0.5% methyl cellulose, mean n = 3) | SMILES
BCS Class 2 | 6 h | 0.707 µM·h | 84 nM | CCOC(=O)N1c2ccc(C(F)(F)F)cc2[C@@H](N(Cc2cc(C(F)(F)F)cc(C(F)(F)F)c2)C(=O)OC)C[C@H]1CC [Torcetrapib, (2R,4S)-4-[(3,5-Bis-trifluoromethylbenzyl)methoxycarbonylamino]-2-ethyl-6-trifluoromethyl-3,4-dihydro-2H-quinoline-1-carboxylic acid ethyl ester]
BCS class 2 |  |  |  | Cc1cccc(C)c1OCC(=O)N[C@@H](Cc1ccccc1)[C@@H](O)C[C@H](Cc1ccccc1)NC(=O)[C@H](C(C)C)N1CCCNC1=O [Lopinavir, (αS)—N-[(1S,3S,4S)-4-[[2-(2,6-Dimethylphenoxy)acetyl]amino]-3-hydroxy-5-phenyl-1-(phenylmethyl)pentyl]tetrahydro-α-(1-methylethyl)-2-oxo-1(2H)-pyrimidineacetamide]
